In brackets after ≈: the same amount, converted by molar mass.
Key:
MTT cytotoxicity assay = type: cell-based, mouse; conditions: mouse; for IC50: MTT, 48 hours, read-out: Cytotoxicity NIH-3T3 cell line (IC50)
Method: The cytotoxicity was recorded as concentration causing 50% growth inhibition (IC50).

[1] = tested on: Salmonella typhi (ATCC 14028); test: Microplate Alamar Blue Assay, Salmonella typhi; type: cell-based; conditions: Salmonella enterica; 200 μg/mL; NI = No inhibition; read-out: Percentage (%) Inhibition, Slamonella typhi
Method: (§1) The anti-bacterial activity of synthesized compound were evaluated by the Microplate Alamar Blue Assay. Staphylococcus aureus (ATCC 25923), Pseudomonas aeruginosa(POA 286), Salmonella typhi (ATCC 14028), Bacillus subtilis ATCC 6633) and Escherichia coli (ATCC 12022) were used in this study as a standard bacterial strains and they were obtained from microbial bank of PCMD, International Center for Chemical and Biological Sciences, University of Karachi, Karachi-75270, Pakistan. The bacterial colonies grown in Trypton Soya Agar (TSA) (Oxoid Limited, UK) were inoculated in Mueller Hinton Broth (MHB) (Oxoid Limited, UK) and incubated overnight at 37 °C. Fully grown bacterial cultures were then diluted to adjust with 0.5 McFarland Turbidity Index (equivalent to 1.5 × 10^8 CFU/mL). Stock solutions (4 mg/mL) of different test compounds were prepared in DMSO and 10μL each of these stock solutions were placed in well of flat bottom, polystyrene, sterile 96-wells plate except the positive control wells (media + bacteria). This gives 200μg/mL concentrations of compounds in final 200 μL solution. Each compound was run in triplicates. Finally, bacterial suspension (5 x 10^6 CFU/mL) was added in each well. Plates were sealed by parafilm and incubated at 37 °C for 18–22 hrs. Next day, 20 μL of 0.02% resazurin sodium salt dye (Chem-Impex-Int’LInc) was added in each well and incubated in shaking incubator at 80 rpm, 37 °C for 2–3 hrs. The color change from blue to reddish pink indicates the growth of bacteria. For quantitative analysis, plates were read at 570 nm and 600 nm in Multiskan GOmicroplate spectrophotometer, (Thermo Scientific, USA). The % inhibition of bacterial growth was calculated using below mentioned formula.
(§2) For the calculation of the % difference in reduction between treated and control cells in cytotoxicity/proliferation assays: =(εOX)λ2Aλ1-(εOX)λ1Aλ2oftestagent/(εOX)λ2A°λ1-(εOX)λ1A°λ2ofpositivegrowthcontrol×100

[2] = tested on: zymosan activated whole blood phagocytes; test: Oxidative burst assay (luminol-enhanced chemiluminescence), whole blood; type: cell-based; conditions: human whole blood, serum opsonized zymosan, three doses 1, 10, 100 μg/mL, mean ± SD of three, NA = Not active, read-out: Oxidative Burst Inhibition (IC50) WB
Method: Luminol-enhanced chemiluminescence assay was performed, as described by Helfandet al., 1982 [17], with some modifications. Briefly 25 μL of diluted whole blood in HBSS^++ (Hanks Balanced Salt Solution, containing calcium chloride and magnesium chloride) [Sigma, St. Louis, USA] was incubated with 25 μL of three different concentrations of compounds (1, 10, and 100 μg/mL), each in triplicate. Control wells received HBSS^++ and cells, but no compounds. Test was performed in white half area 96-well plates [Costar, NY, USA], which was incubated at 37 °C for 15 minutes in the thermostat chamber of luminometer [Labsystems, Helsinki, Finland]. After incubation, 25 μL of serum opsonized zymosan (SOZ) [Fluka, Buchs, Switzerland] and 25 μL of intracellular reactive oxygen species detecting probe, luminol [Research Organics, Cleveland, OH, USA] were added into each well, except blank wells (containing only HBSS^++). The level of the ROS was recorded in luminometer in term of relative light units (RLU).

[3] = tested on: Bacillus subtilis (ATCC 6633); test: Microplate Alamar Blue Assay, Bacillus subtilis; type: cell-based; conditions: ATCC6633, 200 μg/mL, NI = No inhibition, read-out: Percentage (%) Inhibition, Bacillus subtilis
Method: as §1, §2

[4] = tested on: TNF-α production from THP-1 human monocytic leukemia cell line; test: TNF-α production (ELISA), LPS stimulated THP-1 cells; type: cell-based; conditions: Homo sapiens; PMA-differentiated THP-1 cells, 50 ng/mL LPS, 4 hours; three doses 1, 10, 100 μg/mL; mean ± SD of three; read-out: TNF-α Inhibition (IC50)
From the text: RPMI-1640 (R8758, Sigma Aldrich, St. Louis, USA); L-glutamine (25030081, Gibco, California, USA); D-glucose (G8270, Sigma Aldrich, St. Louis, USA); 2-mercaptoethanol (190242, MP Biomedicals, lllkirch, France); sodium pyruvate (11360–070, Gibco, California, USA); FBS (A11-104, PAA Laboratories, Pasching, Austria); HEPES (H3375, Sigma Aldrich, St. Louis, USA); PMA (151864, MP Biomedicals, lllkirch, France); lipopolysaccharide B of E. coli 0111:B4 (LPS) (3922–25, DIFCO Laboratories, USA); 24-well tissue culture plates (CLS3524, Corning, Dublin, USA); Flat bottom 96-well tissue culture plates (CLS3300, Corning, New York, USA). BSA (151429, MP Biomedicals, lllkirch, France); PBS tablets (41620016–4, Bioworld, Dublin, Ireland); Tween 20 (822184, Merck, Damstadt, Germany); Human TNF-α DuoSet ELISA Kit (DY210, R&D Systems, Minneapolis, USA); Human IL-1β DuoSet ELISA Kit (DY201, R&D Systems, Minneapolis, USA); and Human IL-2 DuoSet ELISA Kit (DY202, R&D Systems, Minneapolis, USA); ELISA plate sealers (DY992, R&D Systems, Minneapolis, USA); Clear flat bottom 96-well microplates (DY990, R&D Systems, Minneapolis, USA). Human monocytic leukemia cells THP-1 were obtained from (European Collection of Cell Cultures, UK). The cells were maintained in RPMI-1640 containing 5.5 mmol/L glucose (BioM Laboratories, Chemical Division, Malaysia), 50 μmol/L mercaptoethanol (Merck Damstadt, Germany), 10% FBS (fetal bovine serum), 2 mmol/L; L-glutamine (PAA Laboratories, GmbH, Pasching, Austria). Cells were grown in 75 cc flasks, harvested and 2.5×10^5 cells/mL was then plated in 24-well tissue culture plates. 20 ng/mL of phorbol-12-myristate-13-acetate (PMA), (SERVA, Heidelberg, Germany) was added followed by incubation for 24 hours at 37 °C in 5% CO2to convert them into macrophage like cell. Cells were then stimulated with E. coli lipopolysacchride B, (DIFCO Laboratories, michigon, USA) at a final concentration of 50 ng/mL and treated with compounds at three different concentration (1, 10 and 100 μg/mL) and then incubated for 4 hours at 37 °C in 5% CO2. The supernatants collected were analyzed for the level of TNF -α using the human TNF-α Duo Set ELISA (R&D Systems, Minneapolis, USA), and according to manufacturer’s instructions.

Compound	IC50 (MTT cytotoxicity assay)	inhibition at 200 µg/mL [1]	IC50 [2]	inhibition at 200 µg/mL [3]	IC50 [4]	IC50 at 48 h (MTT cytotoxicity assay)
Cc1cc(C)nc(NS(=O)(=O)c2ccc(NC(=O)c3cccc([N+](=O)[O-])c3)cc2)n1 [Compound 13, N-(4-(N-(4,6-dimethylpyrimidin-2-yl)sulfamoyl)phenyl)-3-nitrobenzamide]	> 30 µM	< 0%	9.2 ± 0.6 µg/mL	< 0%	19.5 ± 1 µg/mL (≈ 45.6 µM)	–
Cc1cc(C)nc(NS(=O)(=O)c2ccc(NC(=O)c3cccc(CCl)c3)cc2)n1 [Compound 4, 3-(Chloromethyl)-N-(4-(N-(4,6-dimethylpyrimidin-2-yl)sulfamoyl)phenyl)benzamide]	> 30 µM	< 0%	7.3 ± 0.4 µg/mL	< 0%	< 1 µg/mL	–
Cc1cc(C)nc(NS(=O)(=O)c2ccc(NC(=O)c3cc(F)cc(F)c3)cc2)n1 [Compound 7, N-(4-(N-(4,6-dimethylpyrimidin-2-yl)sulfamoyl)phenyl)-3,5-difluorobenzamide]	> 30 µM	13.1%	5.8 ± 0.6 µg/mL	< 0%	38.9 ± 0.7 µg/mL (≈ 93 µM)	–
Cc1cc(C)nc(NS(=O)(=O)c2ccc(NC(=O)C(C)Cl)cc2)n1 (stereo not drawn) [Compound 11, 2-Chloro-N-(4-(N-(4,6-dimethylpyrimidin-2-yl)sulfamoyl)phenyl)propanamide]	> 30 µM	29.6%	34.6 ± 1.2 µg/mL	35.1%	> 100 µg/mL	–
Cc1cc(C)nc(NS(=O)(=O)c2ccc(NC(=O)c3ccc(F)cc3)cc2)n1 [Compound 12, N-(4-(N-(4,6-dimethylpyrimidin-2-yl)sulfamoyl)phenyl)-4-fluorobenzamide]	> 30 µM	19%	10.6 ± 0.5 µg/mL	< 0%	9.9 ± 0.2 µg/mL (≈ 24.7 µM)	–
Cc1cc(C)nc(NS(=O)(=O)c2ccc(NC(=O)C(Br)CBr)cc2)n1 (stereo not drawn) [Compound 3, 2,3-Dibromo-N-(4-(N-(4,6-dimethylpyrimidin-2-yl)sulfamoyl)phenyl)propanamide]	> 30 µM	< 0%	6.5 ± 1.3 µg/mL	< 0%	< 1 µg/mL	–
Cc1cc(C)nc(NS(=O)(=O)c2ccc(NC(=O)c3ccc(F)c(C(F)(F)F)c3)cc2)n1 [Compound 10, N-(4-(N-(4,6-dimethylpyrimidin-2-yl)sulfamoyl)phenyl)-4-fluoro-3-(trifluoromethyl)benzamide]	> 30 µM	< 0%	10.6 ± 0.5 µg/mL	< 0%	34.5 ± 4.1 µg/mL (≈ 73.6 µM)	–
Cc1cc(C)nc(NS(=O)(=O)c2ccc(NC(=O)c3ccc(CCl)cc3)cc2)n1 [Compound 5, 4-(Chloromethyl)-N-(4-(N-(4,6-dimethylpyrimidin-2-yl)sulfamoyl)phenyl)benzamide]	> 30 µM	< 0%	20.5 ± 2.2 µg/mL	< 0%	< 1 µg/mL	–
Cc1cc(C)nc(NS(=O)(=O)c2ccc(NC(=O)c3ccc(C(F)(F)F)c(F)c3)cc2)n1 [Compound 9, N-(4-(N-(4,6-dimethylpyrimidin-2-yl)sulfamoyl)phenyl)-3-fluoro-4-(trifluoromethyl)benzamide]	> 30 µM	0.94%	5.7 ± 0.2 µg/mL	< 0%	2.1 ± 0.2 µg/mL (≈ 4.48 µM)	–
Cc1cc(C)nc(NS(=O)(=O)c2ccc(N)cc2)n1 [compound 1, Sulfamethazine, reference compound]	–	< 0%	8.9 ± 1.3 µg/mL	< 0%	> 100 µg/mL	> 30 µM
Cc1cc(C)nc(NS(=O)(=O)c2ccc(NC(=O)c3cc(F)cc(C(F)(F)F)c3)cc2)n1 [Compound 8, N-(4-(N-(4,6-dimethylpyrimidin-2-yl)sulfamoyl)phenyl)-3-fluoro-5-(trifluoromethyl)benzamide]	> 30 µM	29.4%	4.2 ± 0.2 µg/mL	< 0%	9.5 ± 0.4 µg/mL (≈ 20.3 µM)	–
Cc1cc(C)nc(NS(=O)(=O)c2ccc(NC(=O)c3cc(C(F)(F)F)cc(C(F)(F)F)c3)cc2)n1 [Compound 6, N-(4-(N-(4,6-dimethylpyrimidin-2-yl)sulfamoyl)phenyl)-3,5-bis(trifluoromethyl)benzamide]	> 30 µM	< 0%	5.7 ± 0.8 µg/mL	< 0%	< 1 µg/mL	–

Source: paper PMC6300282, “Sulphamethazine derivatives as immunomodulating agents: New therapeutic strategies for inflammatory diseases” (PLoS ONE, 2018)
